# Test results: patent US5538981A, “Tetrahydro-pyrido-indole” (Eli Lilly and Company, priority 1995, dated 1996)
# Counter-ions that a name gives are not always drawn.
# Experiments:
# 5-HT2 receptor = biological target: T1, 5-HT2 receptor (Rattus norvegicus, UniProt P14842); experiment: 5-HT2 receptor radioligand binding displacement assay ([3H]ketanserin, cerebral cortex); design: species or system rat (male Sprague-Dawley); conditions: tritiated ketanserin 1 nM, pH 7.4, 37° C., 30 min, values over 100 nM accumulated before concentration range was reduced to 0.1 to 100 nM
# T1 construct: The reaction was initiated by the addition of the resuspended rat cerebral cortex tissue; tissue Harlan Industries, Cumberland, Ind; (animals); host or cells: cerebral cortex of male Sprague-Dawley rats, washed membranes
# Procedure: The assays were conducted by the following procedures.
# 5-HT1c selective compounds can be identified using the following biological assay procedures. Compounds having a selective affinity for the 5-HT1c receptor have a low IC50 in the 5-HT1c receptor assay and a higher IC50 in the 5-HT2 receptor assay.
# I. Biological Reagent Preparation.
# Beef brain was removed immediately after slaughter, and choroid plexus were dissected over ice. Male Sprague-Dawley rats weighing 125-150 g (Harlan Industries, Cumberland, Ind.) were killed by decapitation. The brain of each was immediately removed and the cerebral cortex was dissected over ice. Tissues were homogenized in 9 volumes of 0.32 mol/L sucrose and centrifuged at 1,000×g for 10 minutes. The supernatant was centrifuged at 17,000×g for 20 minutes. The pellet was suspended in 100 volumes of 50 mM Tris-HCL (pH7.4), incubated at 37° C. for 10 minutes and centrifuged at 50,000×g for 10 minutes, and the process was repeated three times. The final pellets were frozen at -70° C. and used within 2 weeks. Pellets were rehydrated with physiological buffer prior to use.
# Radioligand binding assays for 5-HT1c and 5-HT2 receptors were conducted according to described methods. The assays can be conducted as described by Hoyer D., Functional correlates of serotonin 5-HT1 recognition sites, J. Receptor Res 8, 59-81 (1988) and Hoyer D., Engel G., Kalkman HO Molecular pharmacology of 5-HT1 and 5-HT2 recognition sires in rat and pig brain membranes: Radio-ligand binding studies with [^3 H]5-HT, [^3 H]8-OH-DPAT, (-) [^125 I] iodocyanopindolol, [^3 H]mesulergine and [^3 H]ketanserin, Eur. J. Pharmacol. 118, 13-23 (1985).
# For 5-HT2 receptor assays increasing concentrations of experimental compound, 50 mM Tris HCl buffer pH [7.4], and tritiated ketanserin (1 nM) (^3 H ligand) were combined in polystyrene tubes at room temperature. The reaction was initiated by the addition of the resuspended rat cerebral cortex tissue which had been preincubated at 37° C. for 20 minutes. The reaction mixture was incubated in a 37° C. water bath for 30 minutes.
# The above assays were modified after a number of compounds had been screened to accomodate the unexpectedly high potency of the compounds of this invention in the 5-HT1c assay. The concentration range of the experimental compound in the assays was changed from [0.1 to 1000 (nM)] to [0.1 to 100 (nM)] to optimize the use of reagents and analysis time.
# The reactions were terminated by rapid filtration, (Brandel Cell Harvestor), through Whatman GF/B glass filters that had been presoaked in Tris buffer pH [7.4]. The filters were then washed 2 times with 5 ml of ice cold Tris buffer pH [7.4]. Washed filters were placed in scintillation vials and 10 ml RedySolv, (Brandel), was added and samples were counted in a Searle D-300 beta counter. Means and standard error statistics were calculated for triplicate experimental determinations in certain cases. Mean values were obtained from three or more separate determinations. The incubation time for the reaction mixture was […] at 37° C.
# The results of the evaluation of certain compounds of the present invention in the 5-HT1c and 5-HT2 binding assays are set forth below in Table II.
# 5-HT1c receptor [1] = biological target: T2, 5-HT1c receptor (Bos taurus, UniProt A0AAA9SBU1); experiment: 5-HT1c receptor radioligand binding displacement assay ([3H]mesulergine, choroid plexus); design: species or system beef; conditions: beef choroid plexus; tritiated mesulergine 2.0 nM; pH 7.4; 37° C., 15 min
# T2 construct: natural pool of RNA-edited forms
# T2 sequence (A0AAA9SBU1 33-457): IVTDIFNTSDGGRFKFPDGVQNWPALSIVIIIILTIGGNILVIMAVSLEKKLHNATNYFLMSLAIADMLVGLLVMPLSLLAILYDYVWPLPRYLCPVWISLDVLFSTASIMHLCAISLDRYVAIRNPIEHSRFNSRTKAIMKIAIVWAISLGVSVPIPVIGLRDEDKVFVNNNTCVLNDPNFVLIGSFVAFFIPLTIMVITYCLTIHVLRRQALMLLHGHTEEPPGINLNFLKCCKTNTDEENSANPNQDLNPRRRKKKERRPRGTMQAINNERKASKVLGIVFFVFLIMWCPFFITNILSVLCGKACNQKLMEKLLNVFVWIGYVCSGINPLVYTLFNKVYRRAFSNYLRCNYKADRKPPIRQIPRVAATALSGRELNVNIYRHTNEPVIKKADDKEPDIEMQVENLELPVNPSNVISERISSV
# Procedure: (§1) Beef brain was removed immediately after slaughter, and choroid plexus were dissected over ice. […] The brain of each was immediately removed and the cerebral cortex was dissected over ice. Tissues were homogenized in 9 volumes of 0.32 mol/L sucrose and centrifuged at 1,000×g for 10 minutes. The supernatant was centrifuged at 17,000×g for 20 minutes. The pellet was suspended in 100 volumes of 50 mM Tris-HCL (pH7.4), incubated at 37° C. for 10 minutes and centrifuged at 50,000×g for 10 minutes, and the process was repeated three times. The final pellets were frozen at -70° C. and used within 2 weeks. Pellets were rehydrated with physiological buffer prior to use.
# (§2) For 5-HT1c receptor assays increasing concentrations of experimental compound, 50 mM Tris HCl buffer pH[7.4], and tritiated mesulergine (2.0 nM) (^3 H ligand) were combined in polystyrene tubes at room temperature. The reaction was initiated by the addition of the resuspended choroid plexus tissue which had been preincubated at 37° C. for 20 minutes. The reaction mixture was incubated in a 37° C. water bath for 15 minutes.
# (§3) The reactions were terminated by rapid filtration, (Brandel Cell Harvestor), through Whatman GF/B glass filters that had been presoaked in Tris buffer pH [7.4]. The filters were then washed 2 times with 5 ml of ice cold Tris buffer pH [7.4]. Washed filters were placed in scintillation vials and 10 ml RedySolv, (Brandel), was added and samples were counted in a Searle D-300 beta counter. Means and standard error statistics were calculated for triplicate experimental determinations in certain cases. Mean values were obtained from three or more separate determinations. The incubation time for the reaction mixture was 15 minutes at 37° C.
# 5-HT1c receptor [2] = experiment: as above; design: species or system beef; conditions: 5-HT1c versus 5-HT2, from Table II
# Procedure: as §1, §2, §3
# T1 sequence (P14842 whole entry): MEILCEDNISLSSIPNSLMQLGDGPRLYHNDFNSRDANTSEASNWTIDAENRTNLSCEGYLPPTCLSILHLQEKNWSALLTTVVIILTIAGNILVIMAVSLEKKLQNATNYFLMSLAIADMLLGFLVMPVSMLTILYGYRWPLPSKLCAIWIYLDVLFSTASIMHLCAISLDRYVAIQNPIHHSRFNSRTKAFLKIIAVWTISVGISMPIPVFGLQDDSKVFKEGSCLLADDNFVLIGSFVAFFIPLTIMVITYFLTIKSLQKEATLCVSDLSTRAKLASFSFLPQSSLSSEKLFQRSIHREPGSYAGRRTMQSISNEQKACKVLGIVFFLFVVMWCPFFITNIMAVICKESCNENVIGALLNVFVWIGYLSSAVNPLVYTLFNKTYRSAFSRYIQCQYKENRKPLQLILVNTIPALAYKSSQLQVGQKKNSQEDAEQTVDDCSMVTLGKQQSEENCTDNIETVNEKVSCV
SMILES,IC50 (5-HT2 receptor),IC50 (5-HT1c receptor [1]),"5-HT1c selectivity (low IC50 in 5-HT1c assay, higher IC50 in 5-HT2 assay) (5-HT1c receptor [2])"
"COc1ccc(CC2NCCc3c2[nH]c2ccc(C)cc32)c2ccccc12 (racemic) [Example 1, (±) 6-methyl-1-(1-(4-methoxynaphthalenyl)methyl)-1,2,3,4-tetrahydro-9H-pyrido[3,4-b]indole hydrochloride]",56.1 nM,6.4 nM,
"Cc1ccc2[nH]c3c(c2c1)CCNC3C(C)c1cccc2ccccc12 (racemic) [Example 3, (±) 6-methyl-1-(1-naphthalenyl-1-ethyl)-1,2,3,4-tetrahydro-9H-pyrido[3,4-b]indole]",> 100 nM,6 nM,
"CC(C)c1ccc2[nH]c3c(c2c1)CCNC3C(C)c1cccc2ccccc12 (racemic) [Example 4, hydrochloride]",> 100 nM,14 nM,
"Cc1ccc2[nH]c3c(c2c1)CCNC3Cc1cccc2ccccc12 (racemic) [Example 5, (±) 6-methyl-1-(1-naphthalenylmethyl)-1,2,3,4-tetrahydro-9H-pyrido[3,4-b]indole hydrochloride]",267 nM,30 nM,
"Brc1cccc2c3c([nH]c12)C(Cc1cccc2ccccc12)NCC3 (racemic) [Example 6, (±) 8-bromo-1-(1-naphthalenylmethyl)-1,2,3,4-tetrahydro-9H-pyrido[3,4-b]indolehydrochloride]",40 nM,13.2 nM,
"Cc1cc(Br)c2[nH]c3c(c2c1)CCNC3Cc1cccc2ccccc12 (racemic) [Example 7, (±) 6-methyl-8-bromo-1-(1-naphthalenylmethyl)-1,2,3,4-tetrahydro-9H-pyrido[3,4-b]indole]",247 nM,60 nM,
"COc1cccc2c3c([nH]c12)C(Cc1cccc2ccccc12)NCC3 (racemic) [Example 8, (±) 8-methoxy-1-(1-naphthalenylmethyl)-1,2,3,4-tetrahydro-9H-pyrido[3,4-b]indole]",65 nM,63 nM,
"Brc1ccc2[nH]c3c(c2c1)CCNC3Cc1cccc2ccccc12 (racemic) [Example 9, (±) 6-bromo-1-(1-naphthalenylmethyl)-1,2,3,4-tetrahydro-9H-pyrido[3,4-b]indole]",87 nM,27 nM,
"Cc1ccc2c3c([nH]c2c1Br)C(Cc1cccc2ccccc12)NCC3 (racemic) [Example 10, (±) 7-methyl-8-bromo-1-(1-naphthalenylmethyl)-1,2,3,4-tetrahydro-9H-pyrido[3,4-b]indole hydrochloride]",142 nM,44 nM,
"c1ccc2c(CC3NCCc4c3[nH]c3ccc(C5CCCCC5)cc43)cccc2c1 (racemic) [Example 11, (±) 6-cyclohexyl-1-(1-naphthalenylmethyl)-1,2,3,4-tetrahydro-9H-pyrido[3,4-b]indole hydrochloride]",> 100 nM,189 nM,
"Cc1ccc2[nH]c3c(c2c1)CCN(C)C3Cc1cccc2ccccc12 (racemic) [Example 12, (±) 2,6-dimethyl-1-(1-naphthalenylmethyl)-1,2,3,4-tetrahydro-9H-pyrido[3,4-b]indole hydrochloride]",> 100 nM,54 nM,
"Cc1ccc2[nH]c3c(c2c1F)CCNC3Cc1cccc2ccccc12 (racemic) [Example 13, (±) 5-fluoro-6-methyl-1-(1-naphthalenylmethyl)-1,2,3,4-tetrahydro-9H-pyrido[3,4-b]indole]",> 100 nM,16 nM,
"c1ccc2c(CC3NCCc4c3[nH]c3c4ccc4ccccc43)cccc2c1 (racemic) [Example 14, (±) 7,8,9,10-tetrahydro-10-(1-naphthalenylmethyl)-11H-benzo[g]pyrido[3,4-b]indole]",> 100 nM,61 nM,
"CC(C)(C)c1ccc2[nH]c3c(c2c1)CCNC3Cc1cccc2ccccc12 (racemic) [Example 15, (±) 6-(1,1-dimethylethyl)-1,2,3,4-tetrahydro-1-(1-naphthalenylmethyl)-9H-pyrido[3,4b]indole]",> 100 nM,11 nM,particularly 5-HT1c selective
"CC(C)c1ccc2[nH]c3c(c2c1)CCNC3Cc1cccc2ccccc12 (racemic) [Example 16, (±) 6-(1-methylethyl)-1,2,3,4-tetrahydro-1-(1-naphthalenylmethyl)-9H-pyrido[3,4b]indole]",> 100 nM,9 nM,particularly 5-HT1c selective
"Cc1ccc2c(c1)c1c(n2C)C(Cc2cccc3ccccc23)NCC1 (racemic) [Example 17, (±) 6,9-dimethyl-1,2,3,4-tetrahydro-1-(1-naphthalenylmethyl)-9H-pyrido[3,4-b]indole hydrochloride]",> 100 nM,23 nM,
"Cc1ccc2[nH]c3c(c2c1)CCN[C@H]3Cc1cccc2ccccc12 [Example 18, (-)-(S)-6-methyl-1,2,3,4-tetrahydro-1-(1-naphthalenylmethyl)-9H-pyrido[3,4-b]indole hydrochloride]",108 nM,< 100 nM,
